Results: ChEMBL document CHEMBL1201862, “PubChem BioAssay data set” (2004)
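96-well plates; 48 h exposure; 5 concentrations. Endpoints by linear interpolation between flanking doses. Not reached: highest tested concentration assigned. At the GI50, growth is halved.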 Active and inactive are the calls of the source. Rule as the data show it: active = GI50 up to about 1.1 µM and inactive = higher.

Columns and labels:
Test in all cases: NCI anticancer screen, dose series, 48 h
Malme-3M = test system: Malme-3M
ACHN = test system: ACHN
NCI-H226 = test system: NCI-H226
SF-295 = test system: SF-295
T47D = test system: T47D
Hs-578T = test system: Hs-578T
U-251 = test system: U-251
SR = test system: SR
M14 = test system: M14
IGROV-1 = test system: IGROV-1
OVCAR-8 = test system: OVCAR-8
SNB-19 = test system: SNB-19
HOP-92 = test system: HOP-92
COLO 205 = test system: COLO 205
PC-3 = test system: PC-3
SK-MEL-28 = test system: SK-MEL-28
MCF7 = test system: MCF7
OVCAR-5 = test system: OVCAR-5
SW-620 = test system: SW-620
HL-60 = test system: HL-60

Compound | GI50 (Malme-3M) | GI50 (ACHN) | GI50 (NCI-H226) | GI50 (SF-295) | GI50 (T47D) | GI50 (Hs-578T) | GI50 (U-251) | GI50 (SR) | GI50 (M14) | GI50 (IGROV-1) | GI50 (OVCAR-8) | GI50 (SNB-19) | GI50 (HOP-92) | GI50 (COLO 205) | GI50 (PC-3) | GI50 (SK-MEL-28) | GI50 (MCF7) | GI50 (OVCAR-5) | GI50 (SW-620) | GI50 (HL-60)
Cn1c(=O)c2nc(CCCc3ccc([N+](=O)[O-])cc3)[nH]c2n(C)c1=O | > 100 µM (inactive) | > 100 µM (inactive) | > 100 µM (inactive) | > 100 µM (inactive) | > 100 µM (inactive) | > 100 µM (inactive) | > 100 µM (inactive) | > 100 µM (inactive) | > 100 µM (inactive) | > 100 µM (inactive) | > 100 µM (inactive) | > 100 µM (inactive) | > 100 µM (inactive) | > 100 µM (inactive) | > 100 µM (inactive) | > 100 µM (inactive) | > 100 µM (inactive) | > 100 µM (inactive) |  | 
O=C1c2cc(Cl)ccc2N=C(NC2CCCC2)C2CSCN12 (configuration not stated) | > 100 µM (inactive) | > 100 µM (inactive) | 60 µM (inactive) | > 100 µM (inactive) | 42 µM (inactive) | 39.6 µM (inactive) | > 100 µM (inactive) | 41.5 µM (inactive) | 91.2 µM (inactive) | > 100 µM (inactive) | > 100 µM (inactive) | > 100 µM (inactive) |  | > 100 µM (inactive) | 55.8 µM (inactive) | > 100 µM (inactive) | > 100 µM (inactive) | > 100 µM (inactive) | > 100 µM (inactive) | 
CC1=C(C#N)C(C#N)(C#N)C(NN(C)C)C1 (configuration not stated) | 17.7 µM (inactive) | 13.3 µM (inactive) |  | 24.5 µM (inactive) | 6.15 µM (inactive) | > 100 µM (inactive) | 33.9 µM (inactive) | 25.4 µM (inactive) | 29 µM (inactive) | 17.8 µM (inactive) | 26.3 µM (inactive) | > 10 µM (inactive) | 15.1 µM (inactive) | 3.83 µM (inactive) | 20.4 µM (inactive) | 23 µM (inactive) | 10.6 µM (inactive) | 23.3 µM (inactive) | 17.3 µM (inactive) | 3.59 µM (inactive)
COc1cccc(C23CCCC(C2)NCC3Br)c1OC (configuration not stated) | > 100 µM (inactive) | 21 µM (inactive) | 0.154 µM (active) | 38 µM (inactive) | 26.3 µM (inactive) | 19.7 µM (inactive) | 28.4 µM (inactive) | 31.3 µM (inactive) | 34.4 µM (inactive) | 75.7 µM (inactive) | 11.2 µM (inactive) | 42.3 µM (inactive) | 27.9 µM (inactive) | 11.9 µM (inactive) | 30.5 µM (inactive) | 48 µM (inactive) | 21.6 µM (inactive) | 56.2 µM (inactive) | 35.6 µM (inactive) | 
CC(=O)OCCCCN1C(=O)CSc2ccccc21 |  | > 100 µM (inactive) |  | > 100 µM (inactive) | > 100 µM (inactive) | > 100 µM (inactive) | > 100 µM (inactive) | > 100 µM (inactive) |  | > 100 µM (inactive) |  | > 100 µM (inactive) | > 100 µM (inactive) |  | > 100 µM (inactive) | > 100 µM (inactive) | > 100 µM (inactive) | > 100 µM (inactive) | > 100 µM (inactive) | > 100 µM (inactive)
COCC12CCC(OC)C34C5CC6(O)C(OC)C=C(C5C6OC(=O)c5ccccc5)C(C(OC)C13)C4N(C)C2 (configuration not stated) | > 100 µM (inactive) | > 100 µM (inactive) |  | > 100 µM (inactive) | > 100 µM (inactive) | 27.1 µM (inactive) | > 100 µM (inactive) | > 100 µM (inactive) | > 100 µM (inactive) | > 100 µM (inactive) | > 100 µM (inactive) | > 100 µM (inactive) | > 100 µM (inactive) | > 100 µM (inactive) | > 100 µM (inactive) | > 100 µM (inactive) | > 100 µM (inactive) | > 100 µM (inactive) | > 100 µM (inactive) | > 100 µM (inactive)
C=C1C(O)C2(O)OCC34C(CC5C(C)=CC(=O)C(O)C5(C)C23)OC(=O)C(OC(=O)C/C=C(\C)CCCCC)C14 (configuration not stated) |  | < 0.001 µM (active) | 0.0144 µM (active) | 0.0125 µM (active) | < 0.001 µM (active) | < 0.001 µM (active) | 0.0125 µM (active) | < 0.01 µM (active) | < 0.001 µM (active) | 0.0133 µM (active) | 0.0125 µM (active) | 0.0146 µM (active) | 0.0147 µM (active) | 0.0154 µM (active) | < 0.001 µM (active) | 0.0128 µM (active) | 0.0125 µM (active) | 0.0231 µM (active) | 0.0153 µM (active) | 0.0125 µM (active)
NC(=O)C(=CNC(=S)c1ccncc1)C(N)=O |  | > 100 µM (inactive) | > 100 µM (inactive) | > 100 µM (inactive) | > 100 µM (inactive) | > 100 µM (inactive) | > 100 µM (inactive) | > 100 µM (inactive) | > 100 µM (inactive) | > 100 µM (inactive) | > 100 µM (inactive) | > 100 µM (inactive) | > 100 µM (inactive) | > 100 µM (inactive) | > 100 µM (inactive) |  | > 100 µM (inactive) | > 100 µM (inactive) | > 100 µM (inactive) | > 100 µM (inactive)
Cc1cc2nc(N3C(=O)/C(=C/c4ccc(Cl)cc4)N=C3c3ccccc3)sc2cc1C |  | 37.7 µM (inactive) |  | 31.2 µM (inactive) | 27.5 µM (inactive) | 26 µM (inactive) | 29.9 µM (inactive) | 46.5 µM (inactive) | 32.7 µM (inactive) | 14.6 µM (inactive) | 28.4 µM (inactive) | 42.5 µM (inactive) | 8.55 µM (inactive) | 16.1 µM (inactive) | 26.5 µM (inactive) | 55.7 µM (inactive) | 23.4 µM (inactive) | 24.2 µM (inactive) | 27.6 µM (inactive) | 21.6 µM (inactive)
Cc1ccnc(NS(=O)(=O)c2ccc(NC(=O)c3ccc4nc5ccccc5c(Nc5ccc(S(=O)(=O)Nc6nccc(C)n6)cc5)c4c3)cc2)n1 | 78.5 µM (inactive) | > 100 µM (inactive) | > 100 µM (inactive) | > 100 µM (inactive) | 30.8 µM (inactive) | 37.3 µM (inactive) | 19.8 µM (inactive) | 21.9 µM (inactive) | > 100 µM (inactive) | 63.1 µM (inactive) | > 100 µM (inactive) | 51.1 µM (inactive) | 23.2 µM (inactive) | > 100 µM (inactive) | > 100 µM (inactive) | > 100 µM (inactive) | 21.1 µM (inactive) | > 100 µM (inactive) | > 100 µM (inactive) | 94.4 µM (inactive)
O=C(CC(=O)N1N=C(N(c2ccccc2)c2ccccc2)CC1c1ccccc1)Nc1ccc(Cl)cc1 (configuration not stated) |  | > 100 µM (inactive) | > 100 µM (inactive) | > 100 µM (inactive) | > 100 µM (inactive) | > 100 µM (inactive) | > 100 µM (inactive) | > 100 µM (inactive) | > 100 µM (inactive) | > 100 µM (inactive) | > 100 µM (inactive) | > 100 µM (inactive) | > 100 µM (inactive) | > 100 µM (inactive) | > 100 µM (inactive) | > 100 µM (inactive) | > 100 µM (inactive) | > 100 µM (inactive) | > 100 µM (inactive) | > 100 µM (inactive)
O=C(c1ccccc1)C1N=NCC1c1ccc([N+](=O)[O-])cc1 (configuration not stated) | 51.4 µM (inactive) | 47.1 µM (inactive) | 50.4 µM (inactive) | > 100 µM (inactive) | 3.91 µM (inactive) | 34.8 µM (inactive) | 48.5 µM (inactive) | 27.9 µM (inactive) | 48.9 µM (inactive) |  | 42.8 µM (inactive) | 54.8 µM (inactive) | 23.1 µM (inactive) | 39.4 µM (inactive) | 54.8 µM (inactive) | 61.5 µM (inactive) | 22.4 µM (inactive) | > 100 µM (inactive) | > 100 µM (inactive) | 23.1 µM (inactive)
O=C(c1ccccc1)c1ccc(N2C(=O)/C(=C/c3cccc([N+](=O)[O-])c3)N=C2c2ccccc2)c(N2C(=O)/C(=C/c3cccc([N+](=O)[O-])c3)N=C2c2ccccc2)c1 |  | 53.2 µM (inactive) |  | 16.2 µM (inactive) | 24 µM (inactive) | 30.7 µM (inactive) | 78.7 µM (inactive) | 23.4 µM (inactive) | 14.4 µM (inactive) | 32.4 µM (inactive) | 42.5 µM (inactive) | 54.8 µM (inactive) | 82.2 µM (inactive) | 2.77 µM (inactive) | 27.3 µM (inactive) | 78.3 µM (inactive) | 26.7 µM (inactive) | > 100 µM (inactive) | 32.9 µM (inactive) | 0.759 µM (active)
O=C(CC1(O)C(=O)Nc2c(Cl)cc(Cl)cc21)c1cccc([N+](=O)[O-])c1 (configuration not stated) | 19.4 µM (inactive) | 23 µM (inactive) | 31.6 µM (inactive) | 31 µM (inactive) | 63.5 µM (inactive) | 30.6 µM (inactive) | 27.7 µM (inactive) | 51.9 µM (inactive) | 22.8 µM (inactive) | 18.2 µM (inactive) | 29.9 µM (inactive) | > 73.1 µM (inactive) | 23.2 µM (inactive) | 33.3 µM (inactive) | 32.1 µM (inactive) | 32.9 µM (inactive) | 11.9 µM (inactive) | 55.7 µM (inactive) | 20.1 µM (inactive) | 
COc1cc(/C=N/c2ccc(S(N)(=O)=O)cc2)cc(OC)c1 | > 50 µM (inactive) | > 50 µM (inactive) | > 50 µM (inactive) | > 50 µM (inactive) | > 50 µM (inactive) | > 50 µM (inactive) | > 50 µM (inactive) | 16.4 µM (inactive) | > 50 µM (inactive) | 18.2 µM (inactive) | > 50 µM (inactive) | > 50 µM (inactive) | > 50 µM (inactive) | > 50 µM (inactive) | > 50 µM (inactive) | > 50 µM (inactive) | 22.3 µM (inactive) | > 50 µM (inactive) |  | 13.6 µM (inactive)
